# Measured values published in US20250325675A1, “APTAMER, CONJUGATE, COMPOSITION, METHOD FOR PREPARING SAME, AND USE THEREOF” (priority 2022, published 2025).
# B1: conjugate 37: siRNA sense strand 3′ terminal linked to AP2 delivery group by Spacer18-GfAfUf; Cy5 on antisense strand; SEQ ID NO: 71/48 (conjugate)
# sense: CUAGAAAACUGGAUAACGUGAUCUGGAGUUCAGACGUGUUGCUCUUCCGAUCUC
# antisense: ACGUUAUCCAGUUUUCUAGCC
# modifications: AP2 delivery group, Spacer18 linker, Cy5; misc_feature 19 is linked to Spacer18 at 3' end
# B2: conjugate 38: siRNA sense strand 5′ terminal linked to 2′-O-cetyl modified aptamer by four propylene phosphate ester groups; Cy5 on antisense strand; SEQ ID NO: 72/48 (conjugate)
# sense: CUGGAGUUCAGACGUGUUGCUCUUCCGAUCUCUUCUAGAAAACUGGAUAACGU
# antisense: ACGUUAUCCAGUUUUCUAGCC
# modifications: cetyl-modified aptamer, propylene phosphate linkers, Cy5, chemistry not fully specified
# Assays:
# U118-MG glioma cells = test: Flow cytometry: entry of conjugates into U118-MG glioma cells in vitro; format: cell-based, human; settings: 1 h 37°C, yeast tRNA 100 μg/mL, flow cytometry
# Experimental: U118MG cells were seeded into a 96-well plate at 5×10^5 cells/well. Conjugate AP1 prepared above and yeast tRNA were respectively formulated into conjugates solution 1A, 1B, 1C, 1D, 1E, 1F, 1G, 1H, and 1I with DMEM medium, and these conjugate solutions 1A-1I comprised yeast tRNA at a final concentration of 100 μg/mL and respectively comprised conjugate AP1 at final concentrations of 5 nM, 10 nM, 20 nM, 40 nM, 60 nM, 80 nM, 100 nM, 150 nM, 200 nM, and […].
# Control conjugate comparative AP10 prepared above and yeast tRNA were respectively formulated into conjugates solution 1A′, 1B′, 1C′, 1D′, 1E′, 1F′, 1G′ 1H′, and 1I′ with DMEM medium, and these conjugate solutions 1A′-1I′ comprised yeast tRNA at a final concentration of 100 μg/mL and respectively comprised control conjugate comparative AP10 at final concentrations of 5 nM, 10 nM, 20 nM, 40 nM, 60 nM, 80 nM, 100 nM, 150 nM, 200 nM, and […].
# The aforementioned culture wells containing U118MG cells were respectively added with the conjugate solutions 1A-1I above in an amount of 200 μL/well and designated as test group 1A-test group 1I. The aforementioned culture wells containing U118MG cells were respectively added with the conjugate solution 1A′-1I′ above in an amount of 200 μL/well and designated as control group 1A′-control group 1I′. Another culture well containing U118MG cells was added with 200 μL DMEM medium containing yeast tRNA at a final concentration of 100 μg/mL and designated as blank control group 1J. The 96-well plate containing the above test groups and the blank control group were incubated at 37° C. for 1 h in the dark; after incubation, the supernatant of the reaction mixture of each test group and the blank control group was aspirated, and DPBS buffer (purchased from Thermo Fisher) was added to wash the plate 3 times (100 μL each time). After the washing solution was aspirated, each culture well was added with 100 μL DMEM medium to obtain a cell suspension. The supernatant was removed by centrifugation and then 500 μL DPBS buffer was added to re-suspend the cells. Flow cytometry analysis was performed with flow cytometer (BD Biosciences): 10,000 cells in each test group or the blank control group were analyzed, the fluorescence intensity distribution was determined and the mean fluorescence intensity (MFI, a.u.) was calculated. Furthermore, the mean fluorescence intensity corresponding to each final concentration of conjugates is listed in Table 4 below for comparison, and the relative fluorescence difference R is calculated according to the following equation: R=(MFIAP1−MFICAP10)/MFICAP10.
# Therein, MFIAP1 represents mean fluorescence intensity of conjugate AP1 in U118-MG glioma cells, and MFICAP10 represents mean fluorescence intensity of comparative AP10 in U118-MG glioma cells.
# SVGp12 normal astrocytes = test: High content imaging: entry of conjugates into SVGp12 normal astrocytes; format: cell-based, human; settings: 100 nM, 30 min 37°C
# Experimental: (§1) In this experiment, the entry of conjugate AP1 provided by the present disclosure and comparative conjugate comparative AP10 into different cells was observed by a PerkinElmer High Content Imaging system (Operatta).
# (§2) U118MG glioma cells, SVGp12 normal astrocytes, T98G human brain glioma cells, U251 human glioma cells, A549 human non-small cell lung cancer cells, MCF-7 human breast cancer cells, and 293T human kidney epithelial cells were all purchased from the Shanghai Cell Bank of Chinese Academy of Sciences. […] The supernatant was aspirated and DPBS buffer (purchased from Thermo Fisher) was added to wash the plate 2 times (100 μL each time).
# (§3) Conjugate AP1 prepared above and yeast tRNA were respectively formulated into conjugate solution 2A with DMEM medium, and the conjugate solution 2A comprised yeast tRNA at a final concentration of 100 μg/mL and conjugate AP1 at a final concentration of 100 nM. […]
# (§4) Normalization was performed according to the mean fluorescence intensity of control group 2Y, that is, subtracting the mean fluorescence intensity of control group 2Y from the fluorescence intensity of test group 2X before performing imaging.
# U251 human glioma cells = test: High content imaging: entry of conjugates into U251 cells; format: cell-based; settings: 100 nM, 30 min 37°C
# Experimental: as §1, §2, §3, §4
# [1] = test system: A549 human non-small cell lung cancer cells; test: High content imaging: entry of conjugates into A549 cells; format: cell-based; settings: 100 nM, 30 min 37°C
# Experimental: as §1, §2, §3, §4
# [2] = test system: MCF-7 human breast cancer cells; test: High content imaging: entry of conjugates into MCF-7 cells; format: cell-based; settings: 100 nM, 30 min 37°C
# Experimental: as §1, §2, §3, §4
# [3] = test system: 293T human renal epithelial cells; test: High content imaging: entry of conjugates into 293T cells; format: cell-based; settings: 100 nM, 30 min 37°C, normal cells
# Experimental: as §1, §2, §3, §4
# [4] = test system: U118MG glioma tumor spheres; test: High content imaging: entry into U118MG tumor spheres; format: cell-based, human; settings: 100 nM, imaging without washing
# Experimental: (§5) In this experiment, the entry of conjugate AP1 provided by the present disclosure and comparative conjugate comparative AP10 into U118MG glioma tumor spheres and A549 human non-small cell lung cancer tumor spheres was observed by a PerkinElmer High Content Imaging system (Operatta).
# (§6) 80 μL fresh, sterilized and unsolidified 2% agarose was added into the culture wells of a 96-well plate. […] Half of the supernatant was aspirated every 48 h and fresh DMEM medium was added along the wall of the culture wells. After 7 days of culture, the cells were observed under the microscope to confirm that complete cell spheres were obtained, indicating successful tumor sphere cultivation.
# (§7) Each culture well was added with AP1 or comparative AP10 according to the method of experimental Example 2, and imaged in a high content imaging system, with the only difference of directly performing imaging after culture without washing and performing imaging according to the measured fluorescence intensity of Cy5.
# [5] = test system: A549 human non-small cell lung cancer tumor spheres; test: High content imaging: entry into A549 tumor spheres; format: cell-based; settings: 100 nM, imaging without washing
# Experimental: as §5, §6, §7
# [6] = test system: U118MG subcutaneous tumor; test: In vivo distribution of conjugates with different modifications in U118MG subcutaneous tumor model mice (Experimental Example 6); set-up: species or system NOD-SCID mice; settings: 3 mg/kg tail vein; 4 h to 24 h after administration
# Experimental: U118MG subcutaneous tumor model mice were prepared according to the method described in experimental Example 4.
# 9 mice were divided into 3 groups (3 mice per group). AP2, AP3 and comparative AP12 solutions were respectively administered to each mouse of each group by tail vein injection. […] The three groups of mice were respectively designated as test group 6A, test group 6B and test group 6C. […] On Day 10 after administration, one mouse of blank control group 6Y and one mouse of test group 6A was respectively euthanized and tumor tissues were taken for fluorescence imaging, and the results are shown in FIG. 5H. In FIGS. 5A-5H, Blank represents blank control group 6Y.
# hSTAT3 mRNA = hSTAT3 mRNA inhibition by free uptake in PANC-1 cells, qPCR (Experimental Example 18); format: cell-based; settings: PANC1 human pancreatic cancer cells, free uptake 2 μM, RNA extracted after 7 days
# Experimental: PANC-1 human pancreatic cancer cells in the logarithmic growth phase were selected and digested (0.25% pancreatic enzyme). The cells were collected, centrifuged to remove the supernatant, and then resuspended in DMEM medium containing 10% FBS to be formulated into cell culture solution with a concentration of 1×10^5 cells/mL. The solutions were mixed thoroughly, seeded into a 24-well plate (with 1 mL/well, i.e. 1×10^5 cells/well).
# After respectively culturing the cell solutions in different culture wells of a 24-well plate for 24 h, the supernatant was aspirated and 900 μL DMEM medium containing 10% FBS was added into each well. […]
# For each reverse transcription reaction system, 5 μL of the above cDNA-containing solution was taken as the template. By using a SYBR Select Master Mix Kit (purchased from Thermo Fisher Scientific, Cat. No. 4472908), the target gene hSTAT3 and the internal control gene hGAPDH were amplified in a SteponePlus™ Real-Time fluorescence quantitative PCR Thermal Cycler (purchased from Thermo Fisher Scientific) according to the operation method the instruction. […]
# For each test group and control group, the above quantitative PCR detection was performed twice.
# The fluorescence quantitative data was analyzed by relative quantitative 2^−ΔΔct method, and the calculation method was as follows: […]
molecule,measurement,setting,value
"CY5-CfCfAGAGUfCfGCfUfGAGAUfUfCfGUfGGCfGCfUfAUfAUf (CCAGAGUCGCUGAGAUUCGUGGCGCUAUAU; listed as RNA, chemistry not fully specified) [comparative AP10, reference compound]",mean fluorescence intensity (MFI),U118-MG glioma cells; conjugate 5 nM,25.4 a.u.
same,mean fluorescence intensity (MFI),U118-MG glioma cells; conjugate 10 nM,67.4 a.u.
same,mean fluorescence intensity (MFI),U118-MG glioma cells; conjugate 20 nM,176.4 a.u.
same,mean fluorescence intensity (MFI),U118-MG glioma cells; conjugate 40 nM,443.4 a.u.
same,mean fluorescence intensity (MFI),U118-MG glioma cells; conjugate 60 nM,666.4 a.u.
same,mean fluorescence intensity (MFI),U118-MG glioma cells; conjugate 80 nM,787.4 a.u.
same,mean fluorescence intensity (MFI),U118-MG glioma cells; conjugate 100 nM,1167.4 a.u.
same,mean fluorescence intensity (MFI),U118-MG glioma cells; conjugate 150 nM,1251.4 a.u.
same,mean fluorescence intensity (MFI),U118-MG glioma cells; conjugate 200 nM,1868.4 a.u.
same,mean fluorescence intensity (MFI),U118-MG glioma cells; conjugate 500 nM,4029.4 a.u.
same,Cy5 fluorescence signal in cells,SVGp12 normal astrocytes,did not show any fluorescence signal
same,Cy5 fluorescence signal in cells,U251 human glioma cells,neither the tumor cells treated with comparative AP10 nor the 293T human renal epithelial cells showed any fluorescence signal
same,Cy5 fluorescence signal in cells,[1],neither the tumor cells treated with comparative AP10 nor the 293T human renal epithelial cells showed any fluorescence signal
same,Cy5 fluorescence signal in cells,[2],neither the tumor cells treated with comparative AP10 nor the 293T human renal epithelial cells showed any fluorescence signal
same,Cy5 fluorescence signal in cells,[3],nor the 293T human renal epithelial cells showed any fluorescence signal
same,Cy5 fluorescence signal in tumor spheres,[4],only the edge of the comparative AP10-treated tumor spheres showed significantly weak fluorescence signal
same,Cy5 fluorescence signal in tumor spheres,[5],only the edge of the comparative AP10-treated tumor spheres showed significantly weak fluorescence signal
CY5-CmsUmsGmGmAmGmUmUmCmAmGmAmCmGmUmGmUmUmGmCmUmCmUmUmCmCmGmAmUmCmsUmsCm [AP3],fluorescence intensity in vivo / tumor,[6],still show high fluorescence intensity
CY5-UmCmUmAmUmGmGmCmUmGmCmCmGmAmUmCmUmGmGmUmCmUmCmCmAmUmGmUmAmCmGmUm [AP12],fluorescence intensity in vivo / tumor,[6],still show high fluorescence intensity
B1,inhibition rate against hSTAT3 mRNA,hSTAT3 mRNA,33%
B2,inhibition rate against hSTAT3 mRNA,hSTAT3 mRNA,44%
